According to ChEMBL document CHEMBL4825668, “Discovery of Novel Pyrimidine-Based Capsid Assembly Modulators as Potent Anti-HBV Agents” (J Med Chem, 2021):
Activity calls are given as the source filed them. No cut-off for these calls is given here.

How the values were obtained:
[1] = Metabolic stability in rat liver microsomes assessed as compound remaining at […] incubated for 30 mins by LC/MS/MS analysis; format: ADME, Microsome; details: read-out: Stabilty
Hepatitis B virus [2] = experiment: Antiviral activity against Human hepatitis B virus in Huh-7 cells assessed as reduction in intracellular viral DNA level incubated for 36 hrs by qPCR analysis; format: functional, organism-based; details: Huh-7, 36 h
[3] = Metabolic stability in human liver microsomes assessed as compound remaining at […] incubated for 30 mins by LC/MS/MS analysis; format: ADME, Microsome; details: read-out: Stabilty
[4] = Toxicity in BALB/c mouse assessed as changes in urine up to 400 mg/kg, po for 2 weeks; format: organism-based; details: in vivo, 336 h
[5] = target: Voltage-gated inwardly rectifying potassium channel KCNH2 (Homo sapiens, UniProt Q12809); experiment: Inhibition of human ERG expressed in HEK cells at -80 mV holding potential by patch clamp assay relative to control; format: cell-based
hERG (KCNH2) = hERG (KCNH2) (Homo sapiens, UniProt Q12809); experiment: Inhibition of human ERG at 40 uM incubated for 2 to 3 hrs by ligand binding assay
[6] = Toxicity in BALB/c mouse assessed as changes in blood up to 400 mg/kg, po for 2 weeks; format: organism-based; details: in vivo, 336 h
[7] = Permeability of the compound at pH 7.4 by PAMPA; format: ADME
CYP2D6 = CYP2D6 (Homo sapiens, UniProt P10635); experiment: Inhibition of human recombinant CYP2D6 using quinidine […] at 10 uM by fluorometric assay; format: ADME
CYP2C9 = CYP2C9 (Homo sapiens, UniProt P11712); experiment: Inhibition of human recombinant CYP2C9 using sulfaphenazole […] at 10 uM by fluorometric assay; format: ADME
[8] = Metabolic stability in mouse liver microsomes assessed as compound remaining at […] incubated for 30 mins by LC/MS/MS analysis; format: ADME, Microsome; details: read-out: Stabilty
CYP1A2 = target: T1, CYP1A2 (Homo sapiens, UniProt P05177); experiment: Inhibition of human recombinant CYP1A2 using alpha-naphthoflavone […] at 10 uM by fluorometric assay; format: ADME
T1 sequence (P05177 whole entry): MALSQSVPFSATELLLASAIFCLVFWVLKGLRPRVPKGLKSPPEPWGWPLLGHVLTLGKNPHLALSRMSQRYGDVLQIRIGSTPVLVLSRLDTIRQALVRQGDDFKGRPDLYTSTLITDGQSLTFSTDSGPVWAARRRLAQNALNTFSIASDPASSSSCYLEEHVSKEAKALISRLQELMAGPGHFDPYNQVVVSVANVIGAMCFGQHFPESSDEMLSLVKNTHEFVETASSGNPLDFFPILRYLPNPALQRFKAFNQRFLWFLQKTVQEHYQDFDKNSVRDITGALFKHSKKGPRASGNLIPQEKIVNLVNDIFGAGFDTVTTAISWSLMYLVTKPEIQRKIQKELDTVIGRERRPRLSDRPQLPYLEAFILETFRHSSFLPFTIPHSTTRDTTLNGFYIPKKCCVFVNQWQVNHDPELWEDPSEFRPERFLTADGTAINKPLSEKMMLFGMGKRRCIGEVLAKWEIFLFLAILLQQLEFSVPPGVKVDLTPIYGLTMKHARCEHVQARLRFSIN

CYP3A4 = CYP3A4 (Homo sapiens, UniProt P08684); experiment: Inhibition of human recombinant CYP3A4 using ketoconazole […] at 10 uM by fluorometric assay; format: ADME
CYP2C19 = CYP2C19 (Homo sapiens, UniProt P33261); experiment: Inhibition of human recombinant CYP2C19 using amitriptyline […] at 10 uM by fluorometric assay; format: ADME
[9] = Mutagenicity in Salmonella typhimurium in presence of S9 fraction by Ames test; format: toxicity, subcellular; details: salmonella enterica subsp. enterica serovar typhimurium
Huh-7 [10] = experiment: Inhibition of HBV recombinant Cp149 expressed in Huh-7 cells assessed as assembled HBV core protein fraction at 1 uM incubated for 1 hr by sucrose gradient analysis; format: cell-based; details: Hepatitis B virus
Hepatitis B virus [11] = experiment: Antiviral activity against Human hepatitis B virus infected in humanized liver uPA SCID mouse model assessed as reduction in HBV core protein at 40 mg/kg, po daily measured after 35 days by immunohistochemical analysis; format: functional, organism-based; details: time 35.0 day
Hepatitis B virus [12] = experiment: Antiviral activity against Human hepatitis B virus in Huh-7 cells assessed as decrease in intracellular viral DNA accumulation incubated for 36 hrs by qPCR analysis; format: functional, organism-based
Hepatitis B virus [13] = experiment: Antiviral activity against Human hepatitis B virus infected in hydrodynamic injection C57BL/6 mouse model assessed as reduction in serum HBsAg up to 120 mg/kg, po daily by ELISA; format: functional, organism-based; details: dose mg/kg <=120
Hepatitis B virus [14] = experiment: Antiviral activity against Human hepatitis B virus infected in hydrodynamic injection C57BL/6 mouse model assessed as reduction in viral DNA in serum up to 120 mg/kg, po daily measured after 5 days by qPCR analysis; format: functional, organism-based; details: dose mg/kg <=120, time 5.0 day
Hepatitis B virus [15] = experiment: Antiviral activity against Human hepatitis B virus infected in humanized liver uPA SCID mouse model assessed as decrease in serum viral DNA at 40 mg/kg, po daily measured every week by qPCR analysis; format: functional, organism-based
Huh-7 [16] = experiment: Inhibition of HBV recombinant Cp149 expressed in Huh-7 cells assessed as inhibition of secretion of particles containing viral DNA at 1 uM incubated for 1 hr by immunoblot analysis; format: cell-based; details: Hepatitis B virus
Hepatitis B virus [17] = experiment: Inhibition of HBV recombinant Cp149 expressed in Escherichia coli BL21 (DE3) assessed as inhibition of capsid assembly at 1 uM incubated for 1 hr by immune blotting analysis relative to control
Hepatitis B virus [18] = experiment: Antiviral activity against Human hepatitis B virus in Huh-7 cells assessed as decrease in viral DNA level incubated for 36 hrs by qPCR analysis; format: functional, organism-based
Hepatitis B virus [19] = experiment: Antiviral activity against Human hepatitis B virus infected in humanized liver uPA SCID mouse model assessed as change in serum HBsAg at 40 mg/kg, po daily measured every week by ELISA; format: functional, organism-based
Hepatitis B virus [20] = experiment: Inhibition of HBV recombinant Cp149 expressed in Escherichia coli BL21 (DE3) assessed as inhibition of capsid assembly at 0.1 uM incubated for 1 hr by immune blotting analysis relative to control
Hepatitis B virus [21] = experiment: Antiviral activity against Human hepatitis B virus in Huh-7 cells assessed as reduction in HBsAg level by ELISA; format: functional, organism-based
Hepatitis B virus [22] = experiment: Antiviral activity against Human hepatitis B virus infected in humanized liver uPA SCID mouse model assessed as change in serum HBeAg at 40 mg/kg, po daily measured every week by ELISA; format: functional, organism-based
[23] = Volume of distribution at steady state in ICR mouse at 10 mg/kg, iv measured after 1440 mins by HPLC analysis; format: ADME, organism-based; details: in vivo, read-out: Vdss
[24] = Half life in ICR mouse at 10 mg/kg, iv measured after 1440 mins by HPLC analysis; format: ADME, organism-based; details: in vivo
[25] = AUC(infinity) in ICR mouse at 10 mg/kg, po measured after 1440 mins by HPLC analysis; format: ADME, organism-based; parameters: route oral, dose 10 mg/kg, time 1440 min; details: in vivo
[26] = AUC(infinity) in ICR mouse at 10 mg/kg, iv measured after 1440 mins by HPLC analysis; format: ADME, organism-based; parameters: route intravenous, time 1440 min, dose 10 mg/kg; details: in vivo
[27] = Half life in ICR mouse at 10 mg/kg, po measured after 1440 mins by HPLC analysis; format: ADME, organism-based; details: in vivo
[28] = Cmax in ICR mouse at 10 mg/kg, po measured after 1440 mins by HPLC analysis; format: ADME, organism-based; parameters: route oral, dose 10 mg/kg, time 1440 min; details: in vivo
[29] = AUClast in ICR mouse at 10 mg/kg, iv measured after 1440 mins by HPLC analysis; format: ADME, organism-based; parameters: route intravenous, dose 10 mg/kg, time 1440 min; details: in vivo
[30] = AUClast in ICR mouse at 10 mg/kg, po measured after 1440 mins by HPLC analysis; format: ADME, organism-based; parameters: route oral, time 1440 min, dose 10 mg/kg; details: in vivo
[31] = Clearance in ICR mouse at 10 mg/kg, iv measured after 1440 mins by HPLC analysis; format: ADME, organism-based; details: in vivo
[32] = Tmax in ICR mouse at 10 mg/kg, po measured after 1440 mins by HPLC analysis; format: ADME, organism-based; details: in vivo
[33] = Oral bioavailability in ICR mouse at 10 mg/kg measured after 1440 mins by HPLC analysis; format: ADME, organism-based; details: in vivo
[34] = AUC(infinity) in ICR mouse at 5 mg/kg, iv measured after 1440 mins by HPLC analysis; format: ADME, organism-based; parameters: route intravenous, time 1440 min, dose 5 mg/kg; details: in vivo
[35] = AUClast in ICR mouse at 5 mg/kg, iv measured after 1440 mins by HPLC analysis; format: ADME, organism-based; parameters: route intravenous, dose 5 mg/kg, time 1440 min; details: in vivo
[36] = Half life in ICR mouse at 5 mg/kg, iv measured after 1440 mins by HPLC analysis; format: ADME, organism-based; details: in vivo
[37] = Volume of distribution at steady state in ICR mouse at 5 mg/kg, iv measured after 1440 mins by HPLC analysis; format: ADME, organism-based; details: in vivo, read-out: Vdss
[38] = Cmax in ICR mouse at 5 mg/kg, iv measured after 1440 mins by HPLC analysis; format: ADME, organism-based; parameters: route intravenous, dose 5 mg/kg, time 1440 min; details: in vivo
[39] = Clearance in ICR mouse at 5 mg/kg, iv measured after 1440 mins by HPLC analysis; format: ADME, organism-based; details: in vivo

Sequence of CYP2D6 (P10635 whole entry): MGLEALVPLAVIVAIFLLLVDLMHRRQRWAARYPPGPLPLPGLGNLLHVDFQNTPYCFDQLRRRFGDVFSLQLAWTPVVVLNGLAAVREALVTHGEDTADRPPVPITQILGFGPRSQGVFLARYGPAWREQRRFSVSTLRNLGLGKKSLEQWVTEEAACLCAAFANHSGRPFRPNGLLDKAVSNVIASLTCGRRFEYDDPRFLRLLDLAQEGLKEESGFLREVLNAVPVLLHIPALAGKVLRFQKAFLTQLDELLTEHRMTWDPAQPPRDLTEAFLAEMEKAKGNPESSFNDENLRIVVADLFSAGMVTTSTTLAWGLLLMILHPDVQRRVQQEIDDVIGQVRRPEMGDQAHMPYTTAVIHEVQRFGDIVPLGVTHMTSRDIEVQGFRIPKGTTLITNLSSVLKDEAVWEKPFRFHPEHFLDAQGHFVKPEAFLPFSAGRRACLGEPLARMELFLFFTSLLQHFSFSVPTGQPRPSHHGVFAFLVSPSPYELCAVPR
Sequence of Voltage-gated inwardly rectifying potassium channel KCNH2 (Q12809 whole entry): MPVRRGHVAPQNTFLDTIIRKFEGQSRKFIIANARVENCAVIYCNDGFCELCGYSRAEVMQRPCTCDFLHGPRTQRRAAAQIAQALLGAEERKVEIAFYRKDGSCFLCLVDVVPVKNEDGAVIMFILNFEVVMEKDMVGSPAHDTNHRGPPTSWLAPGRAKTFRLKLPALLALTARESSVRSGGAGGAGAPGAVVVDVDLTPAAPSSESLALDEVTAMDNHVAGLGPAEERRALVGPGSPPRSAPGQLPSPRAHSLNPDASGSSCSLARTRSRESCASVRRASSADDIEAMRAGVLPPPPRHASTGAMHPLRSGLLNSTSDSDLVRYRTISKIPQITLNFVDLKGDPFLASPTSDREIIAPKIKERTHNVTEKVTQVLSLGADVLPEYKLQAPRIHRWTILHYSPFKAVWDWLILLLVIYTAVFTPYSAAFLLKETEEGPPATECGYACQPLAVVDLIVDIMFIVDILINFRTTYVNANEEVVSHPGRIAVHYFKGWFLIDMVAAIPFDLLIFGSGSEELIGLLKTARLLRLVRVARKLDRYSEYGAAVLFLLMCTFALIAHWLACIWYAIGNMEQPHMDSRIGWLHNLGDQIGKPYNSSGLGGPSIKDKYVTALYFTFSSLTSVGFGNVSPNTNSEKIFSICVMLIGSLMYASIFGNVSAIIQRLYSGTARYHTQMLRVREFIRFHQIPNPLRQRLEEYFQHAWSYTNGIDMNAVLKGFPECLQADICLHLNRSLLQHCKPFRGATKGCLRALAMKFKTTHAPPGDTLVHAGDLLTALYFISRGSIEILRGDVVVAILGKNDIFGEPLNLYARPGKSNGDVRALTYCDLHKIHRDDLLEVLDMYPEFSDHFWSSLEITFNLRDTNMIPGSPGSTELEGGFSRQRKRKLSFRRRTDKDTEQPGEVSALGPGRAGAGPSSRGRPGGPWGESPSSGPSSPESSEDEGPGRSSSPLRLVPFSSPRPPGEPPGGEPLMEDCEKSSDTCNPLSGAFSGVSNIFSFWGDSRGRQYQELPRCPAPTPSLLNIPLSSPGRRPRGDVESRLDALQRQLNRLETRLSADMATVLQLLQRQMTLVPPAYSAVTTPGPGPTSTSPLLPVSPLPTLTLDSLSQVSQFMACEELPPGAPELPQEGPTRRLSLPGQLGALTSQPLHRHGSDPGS
Sequence of hERG (KCNH2) (Q12809 whole entry): as above
Sequence of CYP2C19 (P33261 whole entry): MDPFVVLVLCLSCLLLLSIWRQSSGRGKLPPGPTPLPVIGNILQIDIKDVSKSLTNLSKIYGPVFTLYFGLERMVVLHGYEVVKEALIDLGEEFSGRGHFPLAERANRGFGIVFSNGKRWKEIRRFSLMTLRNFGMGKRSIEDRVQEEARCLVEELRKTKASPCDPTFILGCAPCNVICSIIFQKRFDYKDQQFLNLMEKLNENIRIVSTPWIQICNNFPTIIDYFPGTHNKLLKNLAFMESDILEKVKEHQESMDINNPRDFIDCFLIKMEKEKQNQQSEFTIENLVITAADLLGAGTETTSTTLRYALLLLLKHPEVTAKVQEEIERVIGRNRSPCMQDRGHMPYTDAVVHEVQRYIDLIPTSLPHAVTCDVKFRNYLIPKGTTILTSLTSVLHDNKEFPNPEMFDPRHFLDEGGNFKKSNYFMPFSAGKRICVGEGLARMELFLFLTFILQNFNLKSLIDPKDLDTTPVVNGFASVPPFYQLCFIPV
Sequence of CYP2C9 (P11712 whole entry): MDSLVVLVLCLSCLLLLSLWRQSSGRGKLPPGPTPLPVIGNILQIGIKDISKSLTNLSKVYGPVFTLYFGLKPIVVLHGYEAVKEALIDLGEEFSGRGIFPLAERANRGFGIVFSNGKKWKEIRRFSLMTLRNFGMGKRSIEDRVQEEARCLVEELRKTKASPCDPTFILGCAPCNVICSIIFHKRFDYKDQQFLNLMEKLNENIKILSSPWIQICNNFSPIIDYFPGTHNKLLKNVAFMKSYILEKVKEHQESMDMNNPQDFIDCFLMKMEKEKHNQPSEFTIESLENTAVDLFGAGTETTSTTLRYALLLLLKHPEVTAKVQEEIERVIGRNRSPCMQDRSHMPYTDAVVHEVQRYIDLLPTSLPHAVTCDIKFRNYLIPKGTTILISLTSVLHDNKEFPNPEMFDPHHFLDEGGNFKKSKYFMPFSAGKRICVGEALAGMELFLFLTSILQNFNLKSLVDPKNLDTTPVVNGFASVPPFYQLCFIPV
Sequence of CYP3A4 (P08684 whole entry): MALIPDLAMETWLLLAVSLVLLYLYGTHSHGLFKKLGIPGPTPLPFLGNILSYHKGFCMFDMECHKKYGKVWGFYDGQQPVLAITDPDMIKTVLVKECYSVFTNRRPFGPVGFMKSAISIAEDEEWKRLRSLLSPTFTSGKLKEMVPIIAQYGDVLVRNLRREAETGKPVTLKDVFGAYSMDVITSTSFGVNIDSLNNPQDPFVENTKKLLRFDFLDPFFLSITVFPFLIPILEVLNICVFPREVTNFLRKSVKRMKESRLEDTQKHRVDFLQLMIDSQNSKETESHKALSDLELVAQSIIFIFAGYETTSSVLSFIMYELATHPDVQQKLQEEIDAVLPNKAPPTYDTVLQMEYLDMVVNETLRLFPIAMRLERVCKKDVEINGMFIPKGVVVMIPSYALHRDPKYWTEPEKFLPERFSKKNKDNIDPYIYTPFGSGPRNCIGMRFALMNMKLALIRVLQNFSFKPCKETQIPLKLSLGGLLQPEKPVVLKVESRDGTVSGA

## CS(=O)(=O)c1nc(Nc2ccc(F)c(Cl)c2)cc(NC2CCC(N)CC2)n1 (stereo unspecified) [listing 1 of 2 here]
[1]
  remaining at 0.5 h: 82%
Hepatitis B virus [2]
  IC50: 0.181 µM
[3]
  remaining at 0.5 h: 81.7%
[4]
  Activity: Non-Toxic
[5]
  IC50: 19.8 µM
hERG (KCNH2)
  inhibition at 40 µM: 76.6%
[6]
  Activity: Non-Toxic
[7]
  log(permeability): -5.15
CYP2D6
  inhibition at 10 µM: 21.7%
CYP2C9
  inhibition at 10 µM: 51.8%
[8]
  remaining at 0.5 h: 79.6%
CYP1A2
  inhibition at 10 µM: 37.2%
CYP3A4
  inhibition at 10 µM: 44%
CYP2C19
  inhibition at 10 µM: 71.4%
[9]
  Activity: Non-Toxic

## CS(=O)(=O)c1nc(Nc2ccc(F)c(Cl)c2)cc(NC2CCC(N)CC2)n1 (stereo unspecified) [listing 2 of 2 here]
Huh-7 [10]
  inhibition: Active
Hepatitis B virus [11]
  Activity: Active
Hepatitis B virus [12]
  Activity: Active
Hepatitis B virus [13]
  Activity: Active
Hepatitis B virus [14]
  Activity: Dose-Dependent Effect
Hepatitis B virus [15]
  Activity: Active
Huh-7 [16]
  inhibition: Active
Hepatitis B virus [17]
  inhibition: 99%
Hepatitis B virus [18]
  Activity: Active
Hepatitis B virus [19]
  Activity: Active
Hepatitis B virus [20]
  inhibition: 52%
Hepatitis B virus [21]
  Activity: inactive
Hepatitis B virus [22]
  Activity: Active

## CS(=O)(=O)c1nc(Nc2ccc(F)c(Cl)c2)cc(N2CCNCC2)n1.Cl
[23]
  Vd: 10.9 L/kg
[24]
  half-life: 3.3 h
[25]
  AUC(0-inf): 107 ng·h/mL
[26]
  AUC(0-inf): 2330 ng·h/mL
[27]
  half-life: 7.8 h
[28]
  Cmax: 25 ng/mL
[29]
  AUC(0-t) at 24 h: 2370 ng·h/mL
[30]
  AUC(0-t) at 24 h: 131 ng·h/mL
[31]
  clearance: 70.8 mL/min/kg
[32]
  Tmax: 0.5 h
[33]
  bioavailability: 4.6%

## CS(=O)(=O)c1nc(Nc2ccc(F)c(Cl)c2)cc(NC2CCC(N)CC2)n1.Cl (stereo unspecified)
[34]
  AUC(0-inf): 2410 ng·h/mL
[25]
  AUC(0-inf): 270 ng·h/mL
[35]
  AUC(0-t) at 24 h: 2110 ng·h/mL
[27]
  half-life: 6.3 h
[28]
  Cmax: 28.3 ng/mL
[36]
  half-life: 4.8 h
[37]
  Vd: 5.4 L/kg
[30]
  AUC(0-t) at 24 h: 203 ng·h/mL
[38]
  Cmax: 9780 ng/mL
[32]
  Tmax: 1.8 h
[39]
  clearance: 36.7 mL/min/kg
[33]
  bioavailability: 4.8%
